The values that follow come from PubChem BioAssay AID328 (DTP/NCI, 2004).

Structures are written as SMILES. “And” between values parts separate entries of the source, which are not always exact repeats. Identical values can stand only once. Inconclusive results and toxic doses are left out.

In this assay the test system is BDF1 mice, P388 leukemia ip, median survival T/C. Nature of the assay: NCI In Vivo Anticancer Drug Screen. Data for tumor model P388 Leukemia (intraperitoneal) in B6D2F1 (BDF1) mice. As to conditions: endpoint: median survival time, higher = longer survival. The method, boiled down:
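Each value expresses how treatment altered survival: treated-mouse outcome over vehicle-mouse outcome, both groups bearing the transplanted tumour.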

Where [1] appears, read: dose: 12.5 mg/kg/injection, schedule: Q01DX009 (ip), vehicle: saline.
The mark [2] stands for this setting: dose: 12.5 mg/kg/injection, schedule: Q04DX003 (ip), vehicle: saline.
Setting [3] is: dose: 25.0 mg/kg/injection, schedule: Q01DX009 (ip), vehicle: saline.
Setting [4] is: dose: 50.0 mg/kg/injection, schedule: Q01DX009 (ip), vehicle: saline.
[5] abbreviates: dose: 50.0 mg/kg/injection, schedule: Q04DX003 (ip), vehicle: saline.
Setting [6] is: dose: 100.0 mg/kg/injection, schedule: Q01DX009 (ip), vehicle: saline.
Where [7] appears, read: dose: 50.0 mg/kg/injection, schedule: Q04DX003 (ip), vehicle: saline with Tween-80.
[8] abbreviates: dose: 100.0 mg/kg/injection, schedule: Q04DX003 (ip), vehicle: saline with Tween-80.
[9] abbreviates: dose: 25.0 mg/kg/injection, schedule: Q01DX009 (ip), vehicle: saline with Tween-80.
Where [10] appears, read: dose: 50.0 mg/kg/injection, schedule: Q01DX009 (ip), vehicle: saline with Tween-80.
The mark [11] stands for this setting: dose: 100.0 mg/kg/injection, schedule: Q01DX009 (ip), vehicle: saline with Tween-80.
[12] abbreviates: dose: 200.0 mg/kg/injection, schedule: Q01DX009 (ip), vehicle: saline with Tween-80.
[13] abbreviates: dose: 100.0 mg/kg/injection, schedule: Q04DX003 (ip), vehicle: saline.
Where [14] appears, read: dose: 200.0 mg/kg/injection, schedule: Q04DX003 (ip), vehicle: saline.
[15] abbreviates: dose: 100.0 mg/kg/injection, schedule: Q01DX009 (ip), vehicle: Klucel (hydroxypropylcellulose) (HPC).
[16] abbreviates: dose: 100.0 mg/kg/injection, schedule: Q04DX003 (ip), vehicle: Klucel (hydroxypropylcellulose) (HPC).
The mark [17] stands for this setting: dose: 200.0 mg/kg/injection, schedule: Q01DX009 (ip), vehicle: Klucel (hydroxypropylcellulose) (HPC).
The mark [18] stands for this setting: dose: 400.0 mg/kg/injection, schedule: Q01DX009 (ip), vehicle: Klucel (hydroxypropylcellulose) (HPC).
[19] abbreviates: dose: 400.0 mg/kg/injection, schedule: Q04DX003 (ip), vehicle: Klucel (hydroxypropylcellulose) (HPC).

With `C[n+]1cccc2ccccc21`, the T/C runs as follows: under setting [1], 95 % of control; under setting [2], 104 % of control; under setting [3], 100 % of control and 105 % of control; (dose: 25.0 mg/kg/injection, schedule: Q04DX003 (ip), vehicle: saline) 104 % of control; under setting [4], 100 % of control and 110 % of control; under setting [5], 109 % of control. The T/C under setting [6] was 109 % of control.

With `CCCNC(C)(C)C(SS)c1ccc(Cl)cc1` (stereo not drawn), the T/C runs as follows: under setting [7], 109 % of control; under setting [8], 104 % of control; (dose: 200.0 mg/kg/injection, schedule: Q04DX003 (ip), vehicle: saline with Tween-80) 109 % of control.

As to `CCOC(=O)C(Cc1ccc(N(CCCl)CCCl)cc1)NC(=O)C(NC(C)=O)C(C)C` (stereo not drawn), the T/C runs as follows: (dose: 5.0 mg/kg/injection, schedule: Q04DX003 (ip), vehicle: water) 109 % of control; (dose: 10.0 mg/kg/injection, schedule: Q04DX003 (ip), vehicle: water) 157 % of control; (dose: 20.0 mg/kg/injection, schedule: Q04DX003 (ip), vehicle: water) 223 % of control; (dose: 40.0 mg/kg/injection, schedule: Q04DX003 (ip), vehicle: water) 264 % of control; (dose: 80.0 mg/kg/injection, schedule: Q04DX003 (ip), vehicle: water) 150 % of control.

On to `C1CC[N-]CC1.C1CC[N-]CC1.C1CC[N-]CC1.C1CC[N-]CC1.[Cl][Co][Cl]`, for which the T/C was 118 % of control under setting [9]; 100 % of control (dose: 33.0 mg/kg/injection, schedule: Q01DX009 (ip), vehicle: saline with Tween-80); 120 % of control (dose: 75.0 mg/kg/injection, schedule: Q01DX009 (ip), vehicle: saline with Tween-80).

For `CCCCCCCCCCCC[n+]1ccc2ccccc2c1`, the T/C (dose: 1.0 mg/kg/injection, schedule: Q01DX010 (ip), vehicle: saline) was 115 % of control.

As for `CCOC(=O)c1cccc2cccc(C(=O)OCC)c12`, the T/C by setting is: under setting [9], 106 % of control; under setting [10], 92 % of control; under setting [11], 114 % of control; under setting [12], 100 % of control.

Regarding `O=[N+]([O-])CC(O)c1ccc2ccccc2n1` (stereo not drawn), the T/C is 86 % of control under setting [3]; 86 % of control under setting [4]; 109 % of control under setting [5]; 89 % of control under setting [6]; 95 % of control under setting [13]; 90 % of control under setting [14].

Turning to `N#C/C(=C\c1ccc(O)cc1)c1ccc([N+](=O)[O-])cc1`, the T/C is 98 % of control (dose: 25.0 mg/kg/injection, schedule: Q01DX001 (ip), vehicle: saline); 100 % of control (dose: 50.0 mg/kg/injection, schedule: Q01DX001 (ip), vehicle: saline); 97 % of control (dose: 100.0 mg/kg/injection, schedule: Q01DX001 (ip), vehicle: saline with Tween-80); 96 % of control (dose: 100.0 mg/kg/injection, schedule: Q01DX001 (ip), vehicle: saline).

Turning to `NC(=O)c1ncc(-c2ccccc2)[nH]c1=O`, the T/C runs as follows: under setting [4], 104 % of control; under setting [6], 100 % of control; (dose: 200.0 mg/kg/injection, schedule: Q01DX009 (ip), vehicle: saline) 109 % of control.

Regarding `O=C1c2cscc2C(=O)c2c(Cl)sc(Cl)c21`, the T/C runs as follows: (dose: 6.25 mg/kg/injection, schedule: Q01DX009 (ip), vehicle: saline with Tween-80) 101 % of control; (dose: 12.5 mg/kg/injection, schedule: Q01DX009 (ip), vehicle: saline with Tween-80) 108 % of control; under setting [9], 101 % of control.

As for `CCOC(=O)C(/C=N/C(N)=O)=C(\C)O`, the T/C was 87 % of control under setting [15]; 100 % of control under setting [16]; 95 % of control under setting [17]; 95 % of control (dose: 200.0 mg/kg/injection, schedule: Q04DX003 (ip), vehicle: Klucel (hydroxypropylcellulose) (HPC)); 87 % of control under setting [18]; 95 % of control under setting [19].

For `CCCCCCCCCCCCCCCCCCCCCCCCC(O)C(=O)NC(CO)C(O)C(O)CCCCCCCCCCCCCC` (stereo not drawn), the T/C (dose: 400.0 mg/kg/injection, schedule: Q04DX003 (ip), vehicle: saline with Tween-80) is 87 % of control.

Consider `COc1ccc(C=O)c(O)c1`, for which the T/C was 90 % of control under setting [15]; 92 % of control under setting [16]; 104 % of control under setting [17]; 90 % of control under setting [18]; 96 % of control under setting [19].

Regarding `CC/C(=C\c1ccccc1)[N+](=O)[O-]`, the T/C under setting [1] was 96 % of control; the T/C under setting [3] was 114 % of control and 124 % of control; the T/C under setting [4] is 123 % of control; the T/C under setting [5] is 109 % of control; the T/C under setting [13] is 100 % of control.

For `CC(=O)CC(c1ccc2c(c1)OCO2)c1c(O)c2ccccc2oc1=O` (stereo not drawn), the T/C (dose: 0.39 mg/kg/injection, schedule: Q01DX009 (ip), vehicle: saline) was 88 % of control; the T/C (dose: 0.78 mg/kg/injection, schedule: Q01DX009 (ip), vehicle: saline) was 106 % of control; the T/C (dose: 0.78 mg/kg/injection, schedule: Q04DX003 (ip), vehicle: saline) is 89 % of control; the T/C (dose: 1.56 mg/kg/injection, schedule: Q01DX009 (ip), vehicle: saline) was 106 % of control; the T/C (dose: 1.56 mg/kg/injection, schedule: Q04DX003 (ip), vehicle: saline) is 98 % of control; the T/C (dose: 3.12 mg/kg/injection, schedule: Q04DX003 (ip), vehicle: saline) was 89 % of control. In addition, the T/C was 89 % of control (dose: 6.25 mg/kg/injection, schedule: Q04DX003 (ip), vehicle: saline) and 102 % of control under setting [2].

As for `CC(=O)C(C)(CCC#N)CCC#N`, the T/C reads like this: under setting [7], 104 % of control; under setting [8], 100 % of control.

As for `CC(=N/O)/C(C)=N\O`, the T/C is 110 % of control (dose: 6.25 mg/kg/injection, schedule: Q01DX009 (ip), vehicle: Klucel (hydroxypropylcellulose) (HPC)); 95 % of control (dose: 25.0 mg/kg/injection, schedule: Q01DX009 (ip), vehicle: Klucel (hydroxypropylcellulose) (HPC)); 95 % of control (dose: 25.0 mg/kg/injection, schedule: Q04DX003 (ip), vehicle: Klucel (hydroxypropylcellulose) (HPC)); 110 % of control and 120 % of control (dose: 50.0 mg/kg/injection, schedule: Q01DX009 (ip), vehicle: Klucel (hydroxypropylcellulose) (HPC)); 100 % of control (dose: 75.0 mg/kg/injection, schedule: Q01DX009 (ip), vehicle: Klucel (hydroxypropylcellulose) (HPC)); 120 % of control under setting [15]. In addition, the T/C under setting [16] is 95 % of control and the T/C (dose: 100.0 mg/kg/injection, schedule: Q04DX003 (ip), vehicle: other) is 100 % of control.

As to `COC(OC)C12CC(OC(=O)N1)C(C)CO2` (stereo not drawn), the T/C by setting is: under setting [5], 98 % of control; under setting [13], 106 % of control; under setting [14], 96 % of control.

`O=C(c1ccccc1)N1CC1`: the T/C is, setting by setting: (dose: 25.0 mg/kg/injection, schedule: Q01DX009 (ip), vehicle: water) 101 % of control; (dose: 25.0 mg/kg/injection, schedule: Q04DX003 (ip), vehicle: water) 115 % of control; (dose: 50.0 mg/kg/injection, schedule: Q04DX003 (ip), vehicle: water) 92 % of control; (dose: 100.0 mg/kg/injection, schedule: Q04DX003 (ip), vehicle: water) 100 % of control; (dose: 200.0 mg/kg/injection, schedule: Q04DX003 (ip), vehicle: water) 109 % of control; (dose: 400.0 mg/kg/injection, schedule: Q01DX009 (ip), vehicle: water) 112 % of control. For the same compound, the T/C (dose: 400.0 mg/kg/injection, schedule: Q04DX003 (ip), vehicle: water) is 115 % of control.

In the case of `COc1cc([N+](=O)[O-])cc(OC)c1OC`, the T/C is 100 % of control under setting [10]; 94 % of control under setting [11]; 102 % of control under setting [12]; 91 % of control (dose: 400.0 mg/kg/injection, schedule: Q01DX009 (ip), vehicle: saline with Tween-80).
